Data: patent publication US20150225762A1, “SAME-DAY BLOOD CULTURE WITH DIGITAL MICROSCOPY” (ACCELERATE DIAGNOSTICS, INC., priority 2012, published 2015)

Experiments:
Kpne 13882 [1] = assay: FISH detection of live and killed bacteria with or without protease digestion; assay type: cell-based, K. pneumoniae
Saur 12600 [2] = assay: Plate count of live bacteria after killing treatment; assay type: cell-based, S. aureus
Ecol 35218 [3] = assay: as above; assay type: cell-based, E. coli
Paer 27853 [4] = assay: FISH detection of live and killed bacteria with or without protease digestion; assay type: cell-based, P. aeruginosa
Ecol 35218 [5] = assay: as above; assay type: cell-based, E. coli
Saur 12600 [6] = assay: as above; assay type: cell-based, S. aureus
Kpne 13882 [7] = assay: Plate count of live bacteria after killing treatment
Paer 27853 [8] = assay: as above; assay type: cell-based, P. aeruginosa
E. coli = assay: Protease-dependent bacterial growth inhibition in rapid blood culture (plating); assay type: cell-based; settings: for Overall rate / Fold Growth: 6 hour run; for Fold Growth: over starting number
Description: Blood culture samples were treated with two different concentrations of protease to determine if protease used at a high concentration could produce inhibition of bacterial growth. Identification of a protease concentration dependent inhibitory effect on the growth rate of microbial cells is an important component of optimization of a rapid blood culture method. Growth of E. coli in simulated bacteremic blood cultures treated with a working protease concentration (0.2 mg/mL) and high protease concentration (20 mg/mL) was compared over a six (6) hour growth and digestion period.
A mock blood culture specimen was created by addition of 10 mL of blood to a BioMerieux BacT/Alert Standard Aerobic bottle. A 1.0 mL portion of this specimen was used for each condition. Each sample was treated with saponin to a final concentration of 4 mg/mL and SPS to a final concentration of 0.96 mg/mL. Samples were then spiked with E. coli bacteria to a final concentration of 1×10^2 cfu/mL. The samples were treated with a Pronase solution containing either 0.2 mg/mL or 20 mg/mL. Samples were incubated at 35° C. with agitation for 6 hours. A portion of each sample was removed for concentration determination at 2 hour time points during the incubation. The sampled bacteria were plated in 10-fold dilution series to determine the concentration of bacteria at each time point. Interval-by-interval growth rates, overall growth rate, and fold increase versus the starting concentration were determined using the calculated concentrations at each time point.

[9] = 1 hour, with protease (0.2 mg/mL Pronase)
[10] = 1 hour, with protease (0.2 mg/mL Pronase), cells live or pre-killed as labelled
[11] = 4 hour, with protease (0.2 mg/mL Pronase)
[12] = 4 hour, with protease (0.2 mg/mL Pronase), cells live or pre-killed as labelled
[13] = 0 hr, after gentamycin 100 micrograms per mL 1 hour or 80% ethanol
[14] = gentamycin 1 hour or 80% ethanol
[15] = High protease (20 mg/mL Pronase)
[16] = Low protease (0.2 mg/mL Pronase)

For gentamycin, the “FISH Conc” value (Kpne 13882 [1]; 1 hour, no protease) was 1.7 × 10^5 cells/mL, the “Positive Detection?” value (Kpne 13882 [1]; 1 hour, no protease) was “Yes (A detection threshold of 1×10^4 cells per mL was used as the threshold for a positive call in the FISH assay)” and the “Positive Detection?” value (Kpne 13882 [1]; [9]) was “Yes (A detection threshold of 1×10^4 cells per mL was used as the threshold for a positive call in the FISH assay)”. The “FISH Conc” value (Kpne 13882 [1]; [10]) was 7.7 × 10^4 cells/mL, the “FISH Conc” value (Kpne 13882 [1]; 4 hour, no protease) was <1 × 10^3 cells/mL and the “Positive Detection?” value (Kpne 13882 [1]; 4 hour, no protease) was “No (A detection threshold of 1×10^4 cells per mL was used as the threshold for a positive call in the FISH assay)”. For the same substance, the “Positive Detection?” value (Kpne 13882 [1]; [11]) was “Yes (A detection threshold of 1×10^4 cells per mL was used as the threshold for a positive call in the FISH assay)”, the “FISH Conc” value (Kpne 13882 [1]; [12]) was 1.7 × 10^4 cells/mL and the “Conc of live bacteria by plating” value (Saur 12600 [2]; [13]) was 2 × 10^3 cfu/mL. The “Killing by plating, in words” value (Saur 12600 [2]; [14]) was “a significant number of S. aureus remained alive”, the “Conc of live bacteria by plating” value (Ecol 35218 [3]; [13]) was 10 cfu/mL and the “Killing by plating, in words” value (Ecol 35218 [3]; [14]) was “substantially killed”. The “FISH Conc” value (Paer 27853 [4]; 1 hour, no protease) was 3.7 × 10^5 cells/mL, the “Positive Detection?” value (Paer 27853 [4]; 1 hour, no protease) was “Yes (A detection threshold of 1×10^4 cells per mL was used as the threshold for a positive call in the FISH assay)” and the “Positive Detection?” value (Paer 27853 [4]; [9]) was “Yes (A detection threshold of 1×10^4 cells per mL was used as the threshold for a positive call in the FISH assay)”. The “FISH Conc” value (Paer 27853 [4]; [10]) was 5.3 × 10^4 cells/mL, the “FISH Conc” value (Paer 27853 [4]; 4 hour, no protease) was 3.0 × 10^5 cells/mL and the “Positive Detection?” value (Paer 27853 [4]; 4 hour, no protease) was “Yes (A detection threshold of 1×10^4 cells per mL was used as the threshold for a positive call in the FISH assay)”. For the same substance, the “Positive Detection?” value (Paer 27853 [4]; [11]) was “No (A detection threshold of 1×10^4 cells per mL was used as the threshold for a positive call in the FISH assay)”, the “FISH Conc” value (Paer 27853 [4]; [12]) was 6.7 × 10^3 cells/mL and the “FISH Conc” value (Ecol 35218 [5]; 1 hour, no protease) was 8.8 × 10^6 cells/mL. For the same substance, the “Positive Detection?” value (Ecol 35218 [5]; 1 hour, no protease) was “Yes (A detection threshold of 1×10^4 cells per mL was used as the threshold for a positive call in the FISH assay)”, the “Positive Detection?” value (Ecol 35218 [5]; [9]) was “Yes (A detection threshold of 1×10^4 cells per mL was used as the threshold for a positive call in the FISH assay)” and the “FISH Conc” value (Ecol 35218 [5]; [10]) was 5.5 × 10^5 cells/mL. The “FISH Conc” value (Ecol 35218 [5]; 4 hour, no protease) was 4.8 × 10^5 cells/mL, the “Positive Detection?” value (Ecol 35218 [5]; 4 hour, no protease) was “Yes (A detection threshold of 1×10^4 cells per mL was used as the threshold for a positive call in the FISH assay)” and the “Positive Detection?” value (Ecol 35218 [5]; [11]) was “Yes (A detection threshold of 1×10^4 cells per mL was used as the threshold for a positive call in the FISH assay)”. For the same substance, the “FISH Conc” value (Ecol 35218 [5]; [12]) was 4.5 × 10^5 cells/mL, the “FISH Conc” value (Saur 12600 [6]; 1 hour, no protease) was 1.4 × 10^5 cells/mL and the “Positive Detection?” value (Saur 12600 [6]; 1 hour, no protease) was “Yes (A detection threshold of 1×10^4 cells per mL was used as the threshold for a positive call in the FISH assay)”. For the same substance, the “Positive Detection?” value (Saur 12600 [6]; [9]) was “Yes (A detection threshold of 1×10^4 cells per mL was used as the threshold for a positive call in the FISH assay)”, the “FISH Conc” value (Saur 12600 [6]; [10]) was 1.1 × 10^5 cells/mL and the “FISH Conc” value (Saur 12600 [6]; 4 hour, no protease) was 3.0 × 10^4 cells/mL. The “Positive Detection?” value (Saur 12600 [6]; 4 hour, no protease) was “Yes (A detection threshold of 1×10^4 cells per mL was used as the threshold for a positive call in the FISH assay)”, the “Positive Detection?” value (Saur 12600 [6]; [11]) was “Yes (A detection threshold of 1×10^4 cells per mL was used as the threshold for a positive call in the FISH assay)” and the “FISH Conc” value (Saur 12600 [6]; [12]) was 3.0 × 10^4 cells/mL. The “Conc of live bacteria by plating” value (Kpne 13882 [7]; [13]) was 60 cfu/mL, the “Killing by plating, in words” value (Kpne 13882 [7]; [14]) was “substantially killed” and the “Conc of live bacteria by plating” value (Paer 27853 [8]; [13]) was 20 cfu/mL. For the same substance, the “Killing by plating, in words” value (Paer 27853 [8]; [14]) was “substantially killed”.
Pronase [Protease] was tested, and the “Positive Detection?” value (Kpne 13882 [1]; [9]) was “Yes (A detection threshold of 1×10^4 cells per mL was used as the threshold for a positive call in the FISH assay)”, the “FISH Conc” value (Kpne 13882 [1]; [10]) was 7.7 × 10^4 cells/mL and the “Positive Detection?” value (Kpne 13882 [1]; [11]) was “Yes (A detection threshold of 1×10^4 cells per mL was used as the threshold for a positive call in the FISH assay)”. For the same substance, the “FISH Conc” value (Kpne 13882 [1]; [12]) was 4.3 × 10^6 cells/mL, the “lower overall increase with the higher concentration of protease” value (E. coli; 20 mg/mL versus 0.2 mg/mL, 6 hour incubation) was “approximately 8.5 fold” and the “Calculated growth rate 0→2 Hours” value (E. coli; [15]) was 0.70. For the same substance, the “Calculated growth rate 2→4 Hours” value (E. coli; [15]) was 2.74, the “Calculated growth rate 4→6 Hours” value (E. coli; [15]) was 2.22 and the Conc of bacteria (E. coli; High protease (20 mg/mL Pronase), 2 hr) was 2.7 × 10^2 cfu/mL. For the same substance, the Conc of bacteria (E. coli; High protease (20 mg/mL Pronase), 4 hr) was 1.2 × 10^4 cfu/mL, the Overall rate (E. coli; [15]) was 1.89 and the Conc of bacteria (E. coli; High protease (20 mg/mL Pronase), 6 hr) was 2.6 × 10^5 cfu/mL. The “Fold Growth” value (E. coli; [15]) was 2,600, the “Calculated growth rate 0→2 Hours” value (E. coli; [16]) was 0.60 and the “Calculated growth rate 2→4 Hours” value (E. coli; [16]) was 2.96. The “Calculated growth rate 4→6 Hours” value (E. coli; [16]) was 3.65, the Conc of bacteria (E. coli; Low protease (0.2 mg/mL Pronase), 2 hr) was 2.3 × 10^2 cfu/mL and the Conc of bacteria (E. coli; Low protease (0.2 mg/mL Pronase), 4 hr) was 1.4 × 10^4 cfu/mL. The Overall rate (E. coli; [16]) was 2.40, the Conc of bacteria (E. coli; Low protease (0.2 mg/mL Pronase), 6 hr) was 2.2 × 10^6 cfu/mL and the “Fold Growth” value (E. coli; [16]) was 22,000. The “Positive Detection?” value (Paer 27853 [4]; [9]) was “Yes (A detection threshold of 1×10^4 cells per mL was used as the threshold for a positive call in the FISH assay)”, the “FISH Conc” value (Paer 27853 [4]; [10]) was 9.0 × 10^4 cells/mL and the “Positive Detection?” value (Paer 27853 [4]; [11]) was “Yes (A detection threshold of 1×10^4 cells per mL was used as the threshold for a positive call in the FISH assay)”. For the same substance, the “FISH Conc” value (Paer 27853 [4]; [12]) was 5.9 × 10^6 cells/mL, the “Positive Detection?” value (Ecol 35218 [5]; [9]) was “Yes (A detection threshold of 1×10^4 cells per mL was used as the threshold for a positive call in the FISH assay)” and the “FISH Conc” value (Ecol 35218 [5]; [10]) was 2.3 × 10^6 cells/mL. For the same substance, the “Positive Detection?” value (Ecol 35218 [5]; [11]) was “Yes (A detection threshold of 1×10^4 cells per mL was used as the threshold for a positive call in the FISH assay)”, the “FISH Conc” value (Ecol 35218 [5]; [12]) was 1.8 × 10^7 cells/mL and the “Positive Detection?” value (Saur 12600 [6]; [9]) was “Yes (A detection threshold of 1×10^4 cells per mL was used as the threshold for a positive call in the FISH assay)”. For the same substance, the “FISH Conc” value (Saur 12600 [6]; [10]) was 1.6 × 10^6 cells/mL, the “Positive Detection?” value (Saur 12600 [6]; [11]) was “Yes (A detection threshold of 1×10^4 cells per mL was used as the threshold for a positive call in the FISH assay)” and the “FISH Conc” value (Saur 12600 [6]; [12]) was 4.2 × 10^7 cells/mL.
